Results taken from PubChem BioAssay (NCI).
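96-well plates; 48 h exposure; 5 concentrations. Endpoints by linear interpolation between flanking doses. Not reached: highest tested concentration assigned. GI50: concentration for 50% inhibition of growth. TGI marks complete inhibition of growth.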

How the values were obtained:
Test in all cases: NCI anticancer screen, dose series, 48 h
[1] = tested on: UACC-257 melanoma
[2] = tested on: NCI-H522 lung
[3] = tested on: IGROV1 ovarian
[4] = tested on: SF-268 CNS
[5] = tested on: A549 NSCLC
[6] = tested on: NCI-H460 lung
[7] = tested on: LOX IMVI melanoma
[8] = tested on: MDA-MB-435
[9] = tested on: OVCAR-3 ovarian
[10] = tested on: A498 renal

| Structure (SMILES) | TGI [1] [µM] | TGI [2] [µM] | TGI [3] [µM] | TGI [4] [µM] | TGI [5] [µM] | TGI [6] [µM] | TGI [7] [µM] | TGI [8] [µM] | GI50 [1] [µM] | GI50 [2] [µM] | GI50 [9] [µM] | TGI [9] [µM] | GI50 [10] [µM] | TGI [10] [µM] | GI50 [3] [µM] | GI50 [4] [µM] | GI50 [5] [µM] | GI50 [6] [µM] | GI50 [7] [µM] | GI50 [8] [µM] |
| --- | --- | --- | --- | --- | --- | --- | --- | --- | --- | --- | --- | --- | --- | --- | --- | --- | --- | --- | --- | --- |
| O=C(O)CSC1=NNC2(C(=O)N1)c1ccccc1-c1ccccc12 | > 10 | > 10 | > 10 | > 10 | > 10 | > 10 | > 10 | > 10 | – | – | – | – | – | – | – | – | – | – | – | – |
| Cc1nc(NS(=O)(=O)c2ccc(NCN3C(=O)c4ccccc4C3=O)cc2)oc1C | > 100 | > 100 | > 100 | > 100 | > 100 | > 100 | > 100 | > 100 | > 100 | > 100 | > 100 | > 100 | > 100 | > 100 | > 100 | > 100 | > 100 | > 100 | > 100 | > 100 |
| COC(=O)c1onc(C2OC(C)(C)OC2C(O)COC(c2ccccc2)(c2ccccc2)c2ccccc2)c1C(=O)OC (stereo unspecified) | – | > 100 | – | > 100 | > 100 | – | – | > 100 | – | – | – | > 100 | – | > 100 | – | – | – | – | – | – |
| COc1c(OC)c(OC)c2c(=O)cc(-c3ccc(OC(C)C)cc3)oc2c1OC | > 58.9 | > 58.2 | > 56.8 | > 51.8 | > 51.1 | > 56.6 | > 55.2 | > 53.5 | – | – | – | 44.6 | – | 36.9 | – | – | – | – | – | – |
| COc1cc(F)c(F)cc1C(=O)c1cnc(NC2CCN(S(C)(=O)=O)CC2)nc1N | > 22.7 | > 25 | 24.5 | 20 | > 25 | 24.3 | > 20.7 | > 25 | 3.56 | 4.67 | 4.48 | 15.7 | 4.62 | 11.9 | 5.11 | 5.65 | 3.18 | 1.16 | 3.16 | 3.55 |
| O=C1CC(c2cccc(Cl)c2)Oc2ccccc21 (stereo unspecified) | 32.2 | – | 50.7 | 50.6 | – | 42.1 | 56.5 | 38.1 | – | – | – | – | – | 46.3 | – | – | – | – | – | – |
| COc1cc(Cl)c(CC(=O)c2c[nH]c3ccccc23)cc1OC | > 100 | – | > 100 | > 100 | > 100 | > 100 | > 100 | > 100 | – | – | – | > 100 | – | > 59.4 | – | – | – | – | – | – |
| C1CSC[C@H]2COC[C@@H](CSCCS1)S2 | > 100 | > 100 | – | > 100 | > 100 | > 100 | > 100 | > 100 | – | – | – | > 100 | – | – | – | – | – | – | – | – |
| O=C1NC(=O)C(c2cccc(Cl)c2)=C1Nc1ccc(Cl)c(C(=O)O)c1 | > 25 | > 25 | > 25 | > 25 | > 25 | > 25 | > 25 | > 25 | > 25 | > 25 | > 25 | > 25 | > 25 | > 25 | > 25 | > 25 | > 25 | > 25 | > 25 | > 25 |
| CN(C)C=N[C@@H](C(=O)O)c1ccccc1 | > 100 | – | > 100 | > 100 | > 100 | > 100 | > 100 | > 100 | – | – | – | > 100 | – | > 100 | – | – | – | – | – | – |
| N#C/C(=C/N1CCN(C(=O)c2ccco2)C1=S)C(=O)Nc1ccc(Cl)cc1 | 48.4 | 30.2 | > 50 | 41 | > 50 | > 50 | > 50 | > 50 | 16.5 | 16.7 | 15.5 | > 50 | – | – | 25.3 | 17.8 | 25.8 | 19.9 | 16.7 | 15.2 |
| CC(C)=Cc1cc(CCC/C(C)=C/Cc2c(O)cc(C)c(C(=O)O)c2O)co1 | > 100 | > 100 | > 100 | > 100 | > 100 | > 100 | > 100 | > 100 | – | – | – | > 100 | – | – | – | – | – | – | – | – |
| COC1=C(OC)C(=O)C(C/C=C(\C)CC/C=C(\C)CC/C=C(\C)CC/C=C(\C)CC/C=C(\C)CC/C=C(\C)CC/C=C(\C)CC/C=C(\C)CC/C=C(\C)CCC=C(C)C)=C(C)C1=O | > 100 | > 100 | > 100 | > 100 | > 100 | > 100 | > 100 | > 100 | > 100 | > 100 | > 100 | > 100 | – | – | > 100 | > 100 | > 100 | > 100 | > 100 | > 100 |
| CC12OC(C(=O)C13CC3)C1C(=O)c3c(O)ccc(O)c3C(=O)C12 (stereo unspecified) | 29.1 | 32 | 29.7 | 45.8 | 39.2 | > 100 | – | 36.5 | 13.9 | 16.1 | – | – | – | – | 13.4 | 15.1 | 17.5 | 31.5 | – | 18.4 |
| COc1cc(S(=O)(=O)Nc2nc(-c3ccc(N4C(=O)C(C)SC4c4ccccc4O)cc3)cs2)ccc1Cl (stereo unspecified) | > 100 | > 100 | – | > 100 | > 100 | > 100 | > 100 | > 100 | 32.8 | 53.7 | 35.6 | > 100 | 51.3 | > 100 | – | 41.4 | 39.7 | 42.5 | 52.1 | 43.6 |
| COc1cc(C2c3cc4c(cc3OC(O)C2C)OCO4)cc(OC)c1OC (stereo unspecified) | > 100 | 0.713 | 51.1 | > 58.9 | – | > 51.3 | > 100 | 0.156 | – | – | – | 5.25 | – | 50.2 | – | – | – | – | – | – |
| C=C(C)[C@@H]1CCc2c(O)c(O)c(=O)cc(C)c2C1 | > 100 | > 96.6 | > 100 | > 100 | > 100 | 3.54 | > 100 | > 100 | – | – | – | – | – | > 62.3 | – | – | – | – | – | – |
| CC(C)C1(NC(=O)C2CC3c4cccc5[nH]cc(c45)CC3N(C)C2)OC2(O)C3CCCN3C(=O)C(Cc3ccccc3)N2C1=O (stereo unspecified) | > 100 | > 100 | > 100 | > 100 | > 100 | > 100 | 47.7 | > 100 | – | – | – | > 100 | – | – | – | – | – | – | – | – |
